The text below walks through data of ChEMBL document CHEMBL3507680, “University of Dundee, Gates Library screen for HepG2 cell viability”.

The data set in a line: Human HepG2 cell viability assay in 384 well format. The class given is toxicity, cell-based. Further details: dose 125 nL, time 70.5 hour; cytotoxicity at 70.5 h: concentration not given beside the values. To be noted: HepG2 cells, read-out: Inhibition.

Take `O=C(O)c1cc(-c2ccncc2)cc(S(=O)(=O)NCc2ccccn2)c1`: the cytotoxicity at 70.5 h was -4.27%.
With `Cc1csc(CNc2nc3c(s2)c(C)nn3C)n1`, the cytotoxicity at 70.5 h was -4.74%.
As to `O=C(NCC(F)F)c1ccc(S(=O)(=O)NCCc2c[nH]cn2)cc1`, the cytotoxicity at 70.5 h was -6.02%.
With `CCOC(=O)CC1CCCCN1C(=O)c1cc(=O)[nH]c(=O)[nH]1` (stereo not drawn), the cytotoxicity at 70.5 h worked out at 11.7%.
Take `Cc1ccccc1CN1C[C@@H](CN(C)CCO)[C@@H](CO)C1`: the cytotoxicity at 70.5 h was -11.6%.
As for `COCCC(=O)N1C[C@H]2CC[C@@H]1CN(C1Cc3ccccc3C1)C2`, the figure is -10%.
As for `O=C(C1CCOCC1)N1CC[C@@](O)(c2ccccc2)[C@H]2CCCC[C@@H]21`, the figure is 24.9%.
As for `CCC(CO)N(Cc1cccc(-n2cccn2)c1)Cc1cccs1` (stereo not drawn), the figure is -4.44%.
On to `COCCN1CCC(CN(Cc2ccncc2)C2CCCCC2)CC1`, for which the cytotoxicity at 70.5 h is -6.59%.
As for `Cc1nc2c(c(N3CCCOCC3)n1)CCN(c1nccs1)CC2`, the cytotoxicity at 70.5 h was -6.82%.
In the case of `CC(O)Cc1cn(CC2CCN(c3nccc4occc34)CC2)nn1` (stereo not drawn), the cytotoxicity at 70.5 h stood at 4.74%.
As for `O=C(CCCn1cncn1)N1CCCC1c1nc(-c2ccccc2)no1` (stereo not drawn), the figure is -1.82%.
As for `COc1cc(N[C@@H](Cc2ccccc2)C(N)=O)ncn1`, the figure is -5.19%.
On to `Fc1cccc(-c2noc3c2CN(Cc2cncn2C2CC2)CC3)c1`, for which the cytotoxicity at 70.5 h was -11.3%.
Regarding `CN(C)S(=O)(=O)N1C[C@@H]2CC[C@H](C1)N(CCC(=O)NCc1ccco1)C2`, the cytotoxicity at 70.5 h worked out at 2.74%.
For the molecule `CC(C)N1CCOC(CC(=O)N2CCCN(Cc3ccncc3)CC2)C1` (stereo not drawn), the cytotoxicity at 70.5 h turned out to be 15.7%.
For `CCc1ccc(CN2CCN(C)C3(CCC(=O)N(CC4CC4)CC3)C2)o1` (stereo not drawn), the cytotoxicity at 70.5 h is -1.68%.
As for `O=C(CSc1ccccn1)N1CCC(OCc2cccnc2)CC1`, the figure is -18.6%.
`COc1nccc(N2CC[C@@H](N3CCN(C)CC3)[C@H](O)C2)c1C#N`: the cytotoxicity at 70.5 h was -6.47%.
The same measure for `COc1ccc(-c2cc(N)ccn2)c(OC)c1OC`: -9.71%; for `CN1CCN(CC(C)(C)C)CC1CCO` (stereo not drawn): -3.64%.
As for `Cc1occc1C(=O)N1CCCC1c1ccc(C(=O)N2CCOCC2)s1` (stereo not drawn), the figure is 9.73%.
Turning to `COC(C)(C)CNC(=O)C1CCC(=O)N(C2CCCC2)C1` (stereo not drawn), the cytotoxicity at 70.5 h is 0.695%.
Turning to `COc1ccc(CN2C[C@@H]3CC[C@H](C2)N(S(C)(=O)=O)C3)cc1`, the cytotoxicity at 70.5 h is -7.94%.
The same measure for `C/C=C(\C)CN1C[C@@H](NC(=O)c2ccc(O)c(Cl)c2)C[C@H]1C(=O)NCC`: -11%; for `Cc1nccc(N2CCC(=O)N(CC3CC3)C(C(C)C)C2)n1` (stereo not drawn): -1.5%.
Consider `Nc1nc(CCCNC(=O)c2ccc(C3CCCNC3)cc2)cs1` (stereo not drawn), for which the cytotoxicity at 70.5 h is -7.45%.
`NC(=O)COc1ccc(CN2CCNC(C(=O)NC3CC3)C2)cc1Cl` (stereo not drawn): the cytotoxicity at 70.5 h is -10.1%.
The same measure for `CCNC(=O)Cn1ncc(N(C)CCc2ccccc2)cc1=O`: 8.48%.
The same measure for `CC(=O)c1cccc(-c2nc3c([nH]2)CCNC3)c1F`: -13.2%; for `CCSCC(C)NCc1cn2ccccc2n1` (stereo not drawn): -20.2%.
The same measure for `CSc1ccc(CN(C(=O)c2cc(=O)[nH]c(=O)[nH]2)C2CC2)cc1`: 6.51%; for `O=C1NCCN1CCNc1cc(-c2ccncc2)nc2ccnn12`: -10.3%.
As to `CC(C)c1nc(CN(C)C(=O)c2ccc(CN3CCCCC3)cc2)cs1`, the cytotoxicity at 70.5 h was -7.38%.
As to `CCOc1ccccc1C(C(=O)O)N(C)CC1CCOCC1` (stereo not drawn), the cytotoxicity at 70.5 h is 21.4%.
On to `COc1ccc(N2CCN(C(=O)C3CN(C)C(=O)N3)CC2(C)C)cc1` (stereo not drawn), for which the cytotoxicity at 70.5 h is -8.78%.
As to `Cc1nc2c(C)cccc2cc1C(=O)N1CCC2(CC1)NCCNC2=O`, the cytotoxicity at 70.5 h is -15.8%.
Consider `Cc1nc2ccccn2c1CN1C[C@@H](CN2CCOCC2)[C@@H](CO)C1`, for which the cytotoxicity at 70.5 h turned out to be 28.6%.
The same measure for `CN(CCc1ncnn1-c1ccccc1Cl)C1CCS(=O)(=O)C1` (stereo not drawn): -17.7%; for `CS(=O)(=O)Cc1nc(C2CC2)nn1-c1ccccn1`: 4.03%.
The same measure for `CCS(=O)(=O)c1ncc(CN(C)Cc2cccc(OC)c2)n1CCOC`: -6.87%.
As for `CN1C(=O)CC(C(=O)O)C12CCN(Cc1cc(F)ccc1Cl)CC2` (stereo not drawn), the figure is -9.93%; as for `Cc1ncsc1-c1nc(Cc2cccs2)nn1C1CCN(C)CC1`, -4.07%; as for `Cc1ccc(OC2(C(=O)O)CCN(C(=O)c3cccs3)CC2)cn1`, 17.4%.
Take `CCCn1cnnc1CNC1CCCC1`: the cytotoxicity at 70.5 h came to 5.01%.
For the molecule `CCCc1cc(C(=O)N(CC)Cc2ccncc2)[nH]n1`, the cytotoxicity at 70.5 h was -7.59%.
The same measure for `CC1CN(CCC(=O)NCCc2cccnc2)Cc2ccccc2O1` (stereo not drawn): 9.39%.
As for `CCNC(=O)[C@@H]1C[C@H](NC(=O)c2cncnc2C)CN1Cc1ccsc1`, the cytotoxicity at 70.5 h is -17%.
In the case of `C[C@H](NC(=O)c1cccc(CCC(C)(C)O)c1)C(N)=O`, the cytotoxicity at 70.5 h was -0.496%.
As for `CN(C)C(=O)c1ccc(C2CCCN2C(=O)c2ccccc2N(C)C)s1` (stereo not drawn), the figure is -1.33%; as for `COC(=O)N1CCC(Oc2ccc(C(=O)NCCN(C)C)cc2Cl)CC1`, -8.08%; as for `Cc1nc(CN2CCCC(CCc3ccccc3F)C2)c[nH]1` (stereo not drawn), 1.04%.
The same measure for `CC(C)(Cn1cnc(-c2ccccc2)c1-c1ccco1)N1CCOCC1`: -10.2%; for `CCC(NC(=O)c1cnc(N(C)C)nc1C)c1ccncc1` (stereo not drawn): -6.22%; for `O=C(NCCC1CN(Cc2c[nH]cn2)CCO1)c1ccccc1O` (stereo not drawn): 23%.
The same measure for `Cc1ocnc1C(=O)N(Cc1cccnc1)C[C@@H]1CCC(=O)N1`: -8.79%; for `CCOc1ncccc1Cn1cc(-c2cncnc2)nn1`: -15.8%; for `Cc1ccc2ncccc2c1CN1CC[C@H](N(C)C)[C@H](CCC(=O)O)C1`: -7.41%.
Turning to `Cc1ccsc1-c1nnc(SCC(=O)O)n1C(C)c1ccccc1` (stereo not drawn), the cytotoxicity at 70.5 h was -5.54%.
As for `CCN1CCCCC1C(=O)N1CCc2onc(-c3ccc(Cl)cc3)c2C1` (stereo not drawn), the figure is -12.9%.
Turning to `COc1cccn(CC(=O)N(C)CCSC)c1=O`, the cytotoxicity at 70.5 h is -12.7%.
Take `CCN(Cc1ccc2cccc(O)c2n1)CC1CCCO1` (stereo not drawn): the cytotoxicity at 70.5 h worked out at 12.5%.
The same measure for `Cc1cc(C)c2c(N3CCCN(C(=O)C4CCC4)CC3)ncnc2n1`: -6.75%.
Take `CNC(=O)CCN1CCC(c2nnc(Cn3cccn3)n2C2CC2)CC1`: the cytotoxicity at 70.5 h is -8.33%.
In the case of `Oc1ccccc1N1CCN(c2ncnc3sc4c(c23)CCNC4)CC1`, the cytotoxicity at 70.5 h came out at 2.19%.
As for `CCn1c(-c2ccccc2)nn(CC(=O)NCCc2ccc(C)s2)c1=O`, the figure is 13.9%.
Turning to `OC1(CN2CCC(Oc3cccnc3)CC2)CNCCOC1` (stereo not drawn), the cytotoxicity at 70.5 h was -7.48%.
For the molecule `COC(=O)N1CCC2(CC1)N=C(CCC(C)C)NC2=O`, the cytotoxicity at 70.5 h is -8.4%.
As for `O=C(CCC1CCN(C(=O)c2cnco2)CC1)NCc1cccc(Cl)c1`, the figure is -5.59%; as for `CC(=O)N[C@@H](CC(C)C)C(=O)N1CCC(n2cc(CO)nn2)CC1`, -4.38%.
As for `COc1ccc(-c2ccccc2CCN)c(OC)c1`, the figure is -10.1%; as for `Cc1cnccc1NCCNC(=O)C1CCCN(Cc2ccco2)C1` (stereo not drawn), 9.92%.
The same measure for `COCc1ccc(C(=O)N2CCc3c(ncnc3N3CCOCC3)C2)o1`: -4.54%; for `COc1cc(C)c(C2CC(=O)Nc3cc(NS(C)(=O)=O)ccc32)cc1C` (stereo not drawn): 0.99%; for `CCCc1nnc2sc(C3CCN(CCOC)CC3)nn12`: -3.34%.
Take `COc1ccc(F)cc1NC(=O)NCC1(CN2CCOCC2)CC1`: the cytotoxicity at 70.5 h is -0.333%.
As for `CC(Nc1ncnc2sccc12)c1cnn(C)c1` (stereo not drawn), the figure is -12.3%; as for `CC(C)C[C@@H](N)C(=O)N(C)Cc1csc(C(C)C)n1`, 2.05%; as for `CC(C)=CCN1CCNC(=O)C1CC(=O)N1CCc2sccc2C1` (stereo not drawn), -3.67%.
Regarding `CC(Nc1nc(-c2ccncc2)nc2c1CCNC2)c1ccccc1` (stereo not drawn), the cytotoxicity at 70.5 h was -9.03%.
The same measure for `COc1ccc(C(=O)NCc2ccon2)cc1F`: -5.07%; for `CCOC(=O)N1CCC2(CCCN(C3CCOCC3)C2=O)C1` (stereo not drawn): -8.17%.
As for `CCOCCCNc1nc2c(s1)c(C)nn2C`, the figure is -5.29%; as for `CS(=O)(=O)NC1CCN(C(=O)c2coc(CN3CCOCC3)c2)CC1`, -2.89%; as for `Cc1cc(C)c(C(=O)NC(CN2CCCC2)c2ccccc2)c(=O)[nH]1` (stereo not drawn), -20.3%.
As for `Cc1oc(-c2cccc(F)c2F)nc1CN(C)CCC(C)(C)O`, the cytotoxicity at 70.5 h came out at 26.5%.
As to `c1ccc2oc(N3CCCC4(CCOC4)C3)nc2c1` (stereo not drawn), the cytotoxicity at 70.5 h was -5.71%.
The same measure for `CC(=O)Nc1ccc(CN2C[C@H]3CC[C@@H]2CN(c2ncccn2)C3)cc1`: -4.04%.
On to `CCCc1nnc(NCCc2noc(C3CC3)n2)o1`, for which the cytotoxicity at 70.5 h is -9.24%.
On to `O=C1N(Cc2ccc(F)c(F)c2)CCCC1(O)CNCC1CCCCC1` (stereo not drawn), for which the cytotoxicity at 70.5 h was 18.7%.
As for `CCN1CCC(Cn2ccc3c(OC)c(OC)ccc3c2=O)C1` (stereo not drawn), the figure is -2.32%; as for `COc1ccc2c(c1)OCC(Cc1cncc(N)c1)C2` (stereo not drawn), 8.44%.
The same measure for `Cc1[nH]c2c(F)cccc2c1CC(=O)NCc1csc(N(C)C)n1`: 39.7%; for `O=C(O)c1ccnc(-c2ccnc(N3CCC(F)(F)CC3)n2)c1`: 21%.
Take `O=C1NCCN2CCN(C(=O)Nc3ccc(-c4ccccc4)cc3)CC12` (stereo not drawn): the cytotoxicity at 70.5 h was 10.4%.
Consider `O=C(CC1CCCCC1)N1C[C@H]2CC[C@@H]1CN(Cc1cccnc1)C2`, for which the cytotoxicity at 70.5 h is -13.3%.
The same measure for `CNC(=O)[C@@H]1C[C@@H](NC(=O)c2cn(C)nc2C)CN1Cc1sccc1C`: -2.42%; for `CCn1c(N)nc2cc(C(=O)NCc3cccc(C)c3C)cnc21`: 17.1%.
